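Results reflect a 48-hour exposure of cells in 96-well plates to compound at five concentrations. Abbreviation: GI50, concentration required for 50% inhibition of growth.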 Activity calls are given as the source filed them. No stated cut-off is given here; in the data, active = GI50 up to about 1.1 µM and inactive = higher.
How the values were obtained:
Assay in all cases: inhibition of tumour cell growth, NCI panel, 48 h
786-0 = test system: 786-0
A498 = test system: A498
A549 = test system: A549
ACHN = test system: ACHN
CAKI-1 = test system: CAKI-1
CCRF-CEM = test system: CCRF-CEM
COLO 205 = test system: COLO 205
DLD-1 = test system: DLD-1
DMS-114 = test system: DMS-114
HCT-116 = test system: HCT-116
HCT-15 = test system: HCT-15
HL-60 = test system: HL-60
HOP-18 = test system: HOP-18
HOP-62 = test system: HOP-62
HOP-92 = test system: HOP-92
HT-29 = test system: HT-29
IGROV-1 = test system: IGROV-1
K562 = test system: K562
KM-20L2 = test system: KM-20L2
KM12 = test system: KM12
LOX IMVI = test system: LOX IMVI
LXFL 529 = test system: LXFL 529
M14 = test system: M14
M19-MEL = test system: M19-MEL
Malme-3M = test system: Malme-3M
NCI-H226 = test system: NCI-H226
NCI-H23 = test system: NCI-H23
NCI-H460 = test system: NCI-H460
NCI-H522 = test system: NCI-H522
OVCAR-3 = test system: OVCAR-3
OVCAR-4 = test system: OVCAR-4
OVCAR-5 = test system: OVCAR-5
OVCAR-8 = test system: OVCAR-8
RPMI-8226 = test system: RPMI-8226
RXF 393 = test system: RXF 393
RXF 631 = test system: RXF 631
SF-268 = test system: SF-268
SF-295 = test system: SF-295
SF-539 = test system: SF-539
SK-MEL-28 = test system: SK-MEL-28
SK-MEL-5 = test system: SK-MEL-5
SK-OV-3 = test system: SK-OV-3
SN12C = test system: SN12C
SNB-19 = test system: SNB-19
SNB-75 = test system: SNB-75
SNB-78 = test system: SNB-78
SR = test system: SR
SW-620 = test system: SW-620
TK-10 = test system: TK-10
U-251 = test system: U-251
UACC-257 = test system: UACC-257
UACC-62 = test system: UACC-62
UO-31 = test system: UO-31
BT-549 = test system: BT-549
DMS-273 = test system: DMS-273
DU-145 = test system: DU-145
EKVX = test system: EKVX
HCC 2998 = test system: HCC 2998
Hs-578T = test system: Hs-578T
MCF7 = test system: MCF7
MDA-MB-231 = test system: MDA-MB-231
MDA-MB-435 = test system: MDA-MB-435
MDA-N = test system: MDA-N
MOLT-4 = test system: MOLT-4
NCI/ADR-RES = test system: NCI/ADR-RES
PC-3 = test system: PC-3
SK-MEL-2 = test system: SK-MEL-2
T47D = test system: T47D
XF498 = test system: XF498

Compound: Cc1ccc(NC(=O)/C(=N\Nc2ccc([N+](=O)[O-])cc2[N+](=O)[O-])C2C(=O)NC(=O)NC2=O)cc1
- GI50 (786-0): > 100000 nM (inactive)
- GI50 (A498): > 100000 nM (inactive)
- GI50 (A549): 50900 nM (inactive)
- GI50 (ACHN): 23300 nM (inactive)
- GI50 (CAKI-1): > 100000 nM (inactive)
- GI50 (CCRF-CEM): 31800 nM (inactive)
- GI50 (COLO 205): > 100000 nM (inactive)
- GI50 (DLD-1): 21100 nM (inactive)
- GI50 (DMS-114): 49200 nM (inactive)
- GI50 (HCT-116): 62400 nM (inactive)
- GI50 (HCT-15): 6310 nM
- GI50 (HL-60): 35700 nM (inactive)
- GI50 (HOP-18): > 100000 nM (inactive)
- GI50 (HOP-62): 27500 nM (inactive)
- GI50 (HOP-92): > 100000 nM (inactive)
- GI50 (HT-29): 49500 nM (inactive)
- GI50 (IGROV-1): 43200 nM (inactive)
- GI50 (K562): 26200 nM (inactive)
- GI50 (KM-20L2): 15400 nM (inactive)
- GI50 (KM12): 53200 nM (inactive)
- GI50 (LOX IMVI): > 100000 nM (inactive)
- GI50 (LXFL 529): 13300 nM (inactive)
- GI50 (M14): 89700 nM (inactive)
- GI50 (M19-MEL): > 100000 nM (inactive)
- GI50 (Malme-3M): > 100000 nM (inactive)
- GI50 (NCI-H226): > 100000 nM (inactive)
- GI50 (NCI-H23): > 100000 nM (inactive)
- GI50 (NCI-H460): 71000 nM (inactive)
- GI50 (NCI-H522): > 100000 nM (inactive)
- GI50 (OVCAR-3): > 100000 nM (inactive)
- GI50 (OVCAR-4): 65500 nM (inactive)
- GI50 (OVCAR-5): > 100000 nM (inactive)
- GI50 (OVCAR-8): 55700 nM (inactive)
- GI50 (RPMI-8226): 70000 nM (inactive)
- GI50 (RXF 393): 48900 nM (inactive)
- GI50 (RXF 631): > 100000 nM (inactive)
- GI50 (SF-268): 32000 nM (inactive)
- GI50 (SF-295): 46100 nM (inactive)
- GI50 (SF-539): 17900 nM (inactive)
- GI50 (SK-MEL-28): > 100000 nM (inactive)
- GI50 (SK-MEL-5): 33200 nM (inactive)
- GI50 (SK-OV-3): > 100000 nM (inactive)
- GI50 (SN12C): > 100000 nM (inactive)
- GI50 (SNB-19): > 100000 nM (inactive)
- GI50 (SNB-75): 26700 nM (inactive)
- GI50 (SNB-78): > 100000 nM (inactive)
- GI50 (SR): > 100000 nM (inactive)
- GI50 (SW-620): 45700 nM (inactive)
- GI50 (TK-10): > 100000 nM (inactive)
- GI50 (U-251): 38600 nM (inactive)
- GI50 (UACC-257): > 100000 nM (inactive)
- GI50 (UACC-62): 7130 nM (inactive)
- GI50 (UO-31): 15500 nM (inactive)

Compound: COC(=O)[C@@H]1c2cc3c(c(O)c2[C@@H](OC2OC(C)C(OC)C(C)(OC)C2OC)C[C@]1(C)O)C(=O)c1c(O)cc2c(c1C3=O)O[C@H]1O[C@]2(C)[C@H](O)[C@@H](N(C)C)[C@@H]1O (stereo partly specified)
- GI50 (786-0): 6.35 nM (active)
- GI50 (A498): 0.507 nM (active)
- GI50 (A549): 15.6 nM (active)
- GI50 (ACHN): 69 nM (active)
- GI50 (BT-549): 19.7 nM (active)
- GI50 (CAKI-1): 41.9 nM (active)
- GI50 (CCRF-CEM): 11.4 nM (active)
- GI50 (COLO 205): 6.29 nM (active)
- GI50 (DLD-1): 1.46 nM (active)
- GI50 (DMS-114): 1.07 nM (active)
- GI50 (DMS-273): 10 nM (active)
- GI50 (DU-145): 85.9 nM (active)
- GI50 (EKVX): 26.6 nM (active)
- GI50 (HCC 2998): 4.33 nM (active)
- GI50 (HCT-116): 1.89 nM (active)
- GI50 (HCT-15): 247 nM
- GI50 (HL-60): 14.8 nM (active)
- GI50 (HOP-18): 3.23 nM (active)
- GI50 (HOP-62): 35.9 nM (active)
- GI50 (HOP-92): 5.32 nM (active)
- GI50 (HT-29): 8.15 nM (active)
- GI50 (Hs-578T): 20.3 nM (active)
- GI50 (IGROV-1): 10.1 nM (active)
- GI50 (K562): 15.5 nM (active)
- GI50 (KM-20L2): 7.45 nM (active)
- GI50 (KM12): 6.5 nM (active)
- GI50 (LOX IMVI): 2.54 nM (active)
- GI50 (LXFL 529): 0.391 nM (active)
- GI50 (M14): 31.7 nM (active)
- GI50 (M19-MEL): 0.973 nM (active)
- GI50 (MCF7): 33 nM (active)
- GI50 (MDA-MB-231): 28.8 nM (active)
- GI50 (MDA-MB-435): 61.2 nM (active)
- GI50 (MDA-N): 47.1 nM (active)
- GI50 (MOLT-4): 14.6 nM (active)
- GI50 (Malme-3M): 4.53 nM (active)
- GI50 (NCI-H226): 4.27 nM (active)
- GI50 (NCI-H23): 5.81 nM (active)
- GI50 (NCI-H460): 3.77 nM (active)
- GI50 (NCI-H522): 13.8 nM (active)
- GI50 (NCI/ADR-RES): 299 nM (active)
- GI50 (OVCAR-3): 35.1 nM (active)
- GI50 (OVCAR-4): 19.1 nM (active)
- GI50 (OVCAR-5): 81.5 nM (active)
- GI50 (OVCAR-8): 5.08 nM (active)
- GI50 (PC-3): 46.8 nM (active)
- GI50 (RPMI-8226): 2.43 nM (active)
- GI50 (RXF 393): 13.2 nM (active)
- GI50 (SF-268): 5.85 nM (active)
- GI50 (SF-295): 15.4 nM (active)
- GI50 (SF-539): 24.6 nM (active)
- GI50 (SK-MEL-28): 5.56 nM (active)
- GI50 (SK-MEL-2): 3.37 nM (active)
- GI50 (SK-MEL-5): 8.49 nM (active)
- GI50 (SK-OV-3): 42.6 nM (active)
- GI50 (SN12C): < 23.2 nM (active)
- GI50 (SNB-19): 5.02 nM (active)
- GI50 (SNB-75): 6.08 nM (active)
- GI50 (SNB-78): 3.06 nM (active)
- GI50 (SR): 2.94 nM (active)
- GI50 (SW-620): 4.56 nM (active)
- GI50 (T47D): 27.6 nM (active)
- GI50 (TK-10): 29.7 nM (active)
- GI50 (U-251): 7.66 nM (active)
- GI50 (UACC-257): 14.3 nM (active)
- GI50 (UACC-62): 3.86 nM (active)
- GI50 (UO-31): 301 nM (active)
- GI50 (XF498): 1.77 nM (active)

Source: ChEMBL document CHEMBL1201862, “PubChem BioAssay data set” (2004)
